Measured values taken from the supplement of paper PMC6045584.

Legend:
Assay in all cases: area under dose-response curve of surviving fraction (unscaled, Aref=0) (surviving fraction x log10(nM)); higher = more resistant
Settings in all cases: exposure time: 5 days; dose range 0.5-1000 nM
SUNITINIB = compound: CCN(CC)CCNC(=O)c1c(C)[nH]c(/C=C2\C(=O)Nc3ccc(F)cc32)c1C [SUNITINIB]
Outline: (§1)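 Inhibitor was applied to tumour cell lines at eight concentrations (0.5 to 1000 nM) for five days in 384-well plates. Luminescence from CellTiter-Glo, scaled to DMSO-only wells, gave surviving fractions in three screens per line, and these were fitted by 3-parameter logistic regression with the drc R package. The area under the curve is an unscaled activity area. Aref was 0, and dose was on a log10 scale.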

VINORELBINE = compound: CCC1=C[C@@H]2CN(C1)Cc1c([nH]c3ccccc13)[C@@](C(=O)OC)(c1cc3c(cc1OC)N(C)[C@H]1[C@@](O)(C(=O)OC)[C@H](OC(C)=O)[C@]4(CC)C=CCN5CC[C@]31[C@@H]54)C2 [VINORELBINE]
Outline: as §1

ERLOTINIB = compound: C#Cc1cccc(Nc2ncnc3cc(OCCOC)c(OCCOC)cc23)c1 [ERLOTINIB]
Outline: as §1

EVEROLIMUS = compound: CO[C@H]1C[C@@H]2CC[C@@H](C)[C@@](O)(O2)C(=O)C(=O)N2CCCC[C@H]2C(=O)O[C@H]([C@H](C)C[C@@H]2CC[C@@H](OCCO)[C@H](OC)C2)CC(=O)[C@H](C)/C=C(\C)[C@@H](O)[C@@H](OC)C(=O)[C@H](C)C[C@H](C)/C=C/C=C/C=C/1C [EVEROLIMUS]
Outline: as §1

ETOPOSIDE = compound: COc1cc([C@@H]2c3cc4c(cc3[C@@H](O[C@@H]3O[C@@H]5CO[C@@H](C)O[C@H]5[C@H](O)[C@H]3O)[C@H]3COC(=O)[C@H]23)OCO4)cc(OC)c1O [ETOPOSIDE]
Outline: as §1

[1] = compound: O=C(NOCC1CC1)c1ccc(F)c(F)c1Nc1ccc(I)cc1Cl
Outline: as §1

[2] = compound: Cc1nc(Nc2n[nH]c3c2CN(C(=O)N[C@H](CN(C)C)c2ccccc2)C3(C)C)c2sccc2n1
Outline: as §1

MK0752 = compound: O=C(O)CC[C@H]1CC[C@@](c2cc(F)ccc2F)(S(=O)(=O)c2ccc(Cl)cc2)CC1 [MK0752]
Outline: as §1

PLX-4720 = compound: CCCS(=O)(=O)Nc1ccc(F)c(C(=O)c2c[nH]c3ncc(Cl)cc23)c1F [PLX-4720]
Outline: as §1

AZD4547 = compound: COc1cc(CCc2cc(NC(=O)c3ccc(N4CC(C)NC(C)C4)cc3)n[nH]2)cc(OC)c1 [AZD4547]
Outline: as §1

GEMCITABINE = compound: Nc1ccn([C@@H]2O[C@H](CO)[C@@H](O)C2(F)F)c(=O)n1 [GEMCITABINE]
Outline: as §1

MK2206 = compound: NC1(c2ccc(-c3nc4ccn5c(=O)[nH]nc5c4cc3-c3ccccc3)cc2)CCC1 [MK2206]
Outline: as §1

METHOTREXATE = compound: CN(Cc1cnc2nc(N)nc(N)c2n1)c1ccc(C(=O)N[C@@H](CCC(=O)O)C(=O)O)cc1 [METHOTREXATE]
Outline: as §1

Row | Test System | area under dose-response curve (SUNITINIB) | area under dose-response curve (VINORELBINE) | area under dose-response curve (ERLOTINIB) | area under dose-response curve (EVEROLIMUS) | area under dose-response curve (ETOPOSIDE) | area under dose-response curve [1] | area under dose-response curve [2] | area under dose-response curve (MK0752) | area under dose-response curve (PLX-4720) | area under dose-response curve (AZD4547) | area under dose-response curve (GEMCITABINE) | area under dose-response curve (MK2206) | area under dose-response curve (METHOTREXATE)
1 | 93VU HEADNECK | 2.8 | 2.19 | 2.99 | 2.71 | 3.41 | 2.54 | 1.18 | 3.92 | 3.02 | 3.56 | 2 |  | 
2 | 143B BONE | 3.19 | 1.92 |  |  | 3.04 | 3.23 | 1.67 | 3.49 |  | 2.83 |  |  | 
3 | A549 LUNG | 3.13 | 2.2 | 3.49 | 2.81 |  | 3.13 | 1.86 | 3.48 | 3.13 | 3.33 | 1.76 | 3.54 | 2.14
4 | ASKA SYNOVIAL | 2.07 | 1.36 | 3.77 | 2.28 | 2.38 | 3.28 | 2.66 |  | 3.2 |  | 1.03 | 2.71 | 3.77
5 | BT20 BREAST | 2.95 | 1.54 | 3.67 | 1.35 | 2.9 | 3.11 | 2.78 |  | 3 | 3.58 | 1.55 | 3.76 | 3.51
6 | BT549 BREAST | 3.02 | 1.62 | 3.57 |  | 2.79 |  | 1 |  | 3.1 | 3.46 | 1.03 | 2.87 | 1.9
7 | CME SYNOVIAL | 2.09 | 2.33 |  |  | 2.46 | 3.27 | 3.07 | 4.45 | 3.17 |  | 1.25 | 4.03 | 2.37
8 | HCC38 BREAST |  | 2.07 | 4.24 | 2.92 |  | 3.59 | 1.16 | 4.01 | 3.09 | 2.93 | 1.01 | 4.11 | 
9 | HCC202 BREAST | 3.12 | 1.85 |  |  |  | 4.68 | 2.16 |  | 3.8 | 3.81 |  |  | 
10 | HCC1806 BREAST | 2.29 | 1.33 |  | 2.74 | 2.5 |  | 0.463 | 3.93 | 2.86 | 3.6 | 0.258 |  | 1.55
11 | HELA CERVIX | 3.08 | 1.64 | 3.61 | 3.58 | 3.04 |  | 2.12 | 3.42 | 3.26 | 3.71 | 1.75 | 3.72 | 2.22
12 | HMLE3 BREAST | 2.08 | 1.81 |  | 2.01 | 2.53 | 2.57 | 0.944 |  | 2.8 | 2.25 | 1.1 | 2.97 | 2.58
13 | HMT3552 BREAST |  |  | 3.18 | 1.98 |  |  |  |  |  |  | 2.53 | 3.05 | 2.25
14 | HOSMNG BONE | 3.15 | 2.25 | 3.19 | 3.27 |  | 3.32 | 2.58 | 3.3 |  | 3.3 | 1.49 | 2.72 | 1.71
15 | HS578T BREAST |  | 1.28 |  | 1.77 | 2.59 | 3.18 | 1.45 | 3.05 | 2.96 | 3.18 | 3.12 | 2.94 | 2.46
16 | HT1080 SOFT TISSUE | 3.16 | 1.38 | 3.44 | 2.11 | 2.29 | 3.16 | 1.07 | 3.29 | 3.25 |  | 1.22 | 3.42 | 1.8
17 | HU09 BONE | 1.9 | 1.47 |  |  | 2.6 |  | 1.37 | 3.54 | 3.1 | 2.88 | 0.594 | 2.59 | 2.42
18 | JURKAT HAEMATOPOIETIC AND LYMPHOID TISSUE | 3.06 | 1.24 |  | 1.76 | 2.15 |  | 0.653 | 3.4 | 3.23 |  | 1.01 | 2.74 | 1.35
19 | LM7 BONE | 2.46 | 1.45 | 3.61 | 2.56 | 3.06 |  | 1.39 | 3.27 | 2.76 | 3.11 | 1.12 | 2.88 | 3
20 | MDAMB157 BREAST | 2.52 | 1.41 | 3.29 | 2.25 | 2.68 | 2.81 | 1.55 |  | 3.07 | 2.38 |  |  | 3.15
21 | MDAMB453 BREAST | 3.27 | 1.31 |  | 1.43 | 3.71 | 3.37 | 1.76 | 3.54 | 3.35 | 2.88 | 1.47 | 2.65 | 2.93
22 | MG63 BONE | 2.72 | 1.86 |  | 2.17 | 3.13 | 3.12 | 1.34 |  | 3.07 | 2.57 | 1.03 | 3.13 | 2.15
23 | NCIH441 LUNG | 3.25 | 2.25 |  |  | 2.86 | 2.98 | 1.92 | 3.43 | 3.08 |  | 0.954 | 3.53 | 
